Numbered stars: 1 amine (or outer) side, 2 acyl side, 3 side chain; on linkers, the order of the positions; unused ones are H or OH. Bridge positions count the residues as written; N and C are the ends. Square brackets hold non-standard residues; d marks the D form. Peptide text beside a SMILES is read from it. I, II: the chains in the order shown. X2 = NC(=O)[C@H](CCCCNC(=O)COCCOCCN[*:1])N[*:2]; 2Nal = N[C@@H](Cc1ccc2ccccc2c1)C(=O)O; Bta = N[C@@H](Cc1csc2ccccc12)C(=O)O
Legend:
[1] = test system: intracellular Keap1-Nrf2 interaction, ARE reporter-HepG2 cells; assay: ARE luciferase reporter assay; type: cell-based; settings: 18 h, 0% FBS, n = 5; for Increase of luciferase activity: 0.31 μM; for Maximal induction of luciferase expression: highest concentration tested (5 μM)
HeLa cells [2] = assay: MTT cell viability assay; type: cell-based, human; settings: 72 h, DMEM 10% FBS
[3] = test system: HeLa (human cervical cancer) cells; settings: 10% fetal bovine serum; cited from earlier work
HeLa cells [4] = assay: Apparent endosomal escape efficiency; type: cell-based, human; settings: reference line, 10% or 1% FBS; defined as 100%
[5] = ratio of cytosolic versus extracellular concentration; cited from earlier work

## CC(C)C[C@@H]1NC(=O)[C@H](Cc2ccccc2)NC(=O)[C@H](CCC(=O)O)NC(=O)CNC(=O)[C@H]([C@@H](C)O)NC(=O)[C@H](CCC(=O)O)NC(=O)[C@@H]2CCCN2C(=O)[C@H](CC(=O)O)NC(=O)[C@H](CC(C)C)NC(=O)[C@H](CCC(N)=O)NC(=O)CNC1=O [Peptide P1]
[1]; up to 5 μM
  Increase in luciferase activity: did not result in significant increase

## N=C(N)NCCC[C@@H]1NC(=O)[C@H](Cc2ccc3ccccc3c2)NC(=O)[C@@H](Cc2ccccc2)NC(=O)[C@H](Cc2ccccc2)NC(=O)[C@H](CCC(N)=O)NC(=O)[C@@H](CCCNC(=N)N)NC(=O)[C@H](CCCNC(=N)N)NC(=O)[C@@H](CCCNC(=N)N)NC1=O [CPP12, cyclo(Phe-D-Phe-Nal-Arg-D-Arg-Arg-D-Arg-Gln)] (cyclo([2Nal]R[dR]R[dR]QF[dF]))
HeLa cells [2]; at ⩾550 μM concentration (so in the source)
  Loss of viability of HeLa cells (MTT): ~ 40%
HeLa cells [2]; up to 25 μM
  Viability of HeLa cells (MTT): did not reduce the viability
[3]
  Decrease of cytosolic entry efficiency in the presence of 10% FBS: 25 fold
HeLa cells [4]
  Apparent Endosomal Escape Efficiency (γ, %): 100%
[5]
  Cytosolic entry efficiency: 120%

## CC(C)C[C@@H]1NC(=O)[C@H](Cc2ccccc2)NC(=O)[C@H](CCC(=O)O)NC(=O)CNC(=O)[C@H]([C@@H](C)O)NC(=O)[C@H](CCC(=O)O)NC(=O)[C@@H]2CCCN2C(=O)[C@H](CC(=O)O)NC(=O)[C@H](CC(C)C)NC(=O)[C@H](CCC(=O)NCCOCCOCC(=O)NCCCC[C@H](NC(=O)CC[C@@H]2NC(=O)[C@@H](CCCNC(=N)N)NC(=O)[C@H](CCCNC(=N)N)NC(=O)[C@@H](CCCNC(=N)N)NC(=O)[C@H](CCCNC(=N)N)NC(=O)[C@H](Cc3csc4ccccc34)NC(=O)[C@@H](Cc3ccccc3)NC(=O)[C@H](Cc3ccccc3)NC2=O)C(N)=O)NC(=O)CNC1=O [CPP12-2-P1] (I: cyclo(FLGELDPETGE) / II: cyclo(F[dF][Bta]R[dR]R[dR]E); linker I:4-II:8 via X2)
[1]
  Increase of luciferase activity: ~ 2 fold
  Maximal induction of luciferase expression: three- to four-fold

## CC(C)C[C@@H]1NC(=O)[C@H](Cc2ccccc2)NC(=O)[C@H](CCC(=O)O)NC(=O)CNC(=O)[C@H]([C@@H](C)O)NC(=O)[C@H](CCC(=O)O)NC(=O)[C@@H]2CCCN2C(=O)[C@H](CC(=O)O)NC(=O)[C@H](CC(C)C)NC(=O)[C@H](CCC(=O)NCCOCCOCC(=O)NCCCC[C@H](NC(=O)CC[C@@H]2NC(=O)[C@@H](CCCNC(=N)N)NC(=O)[C@H](CCCNC(=N)N)NC(=O)[C@@H](CCCNC(=N)N)NC(=O)[C@H](CCCNC(=N)N)NC(=O)[C@H](Cc3ccc4ccccc4c3)NC(=O)[C@@H](Cc3ccccc3)NC(=O)[C@H](Cc3ccccc3)NC2=O)C(N)=O)NC(=O)CNC1=O [CPP12-P1] (I: cyclo(FLGELDPETGE) / II: cyclo(F[dF][2Nal]R[dR]R[dR]E); linker I:4-II:8 via X2)
[1]
  Increase of luciferase activity: did not have significant effect
  Maximal induction of luciferase expression: three- to four-fold
